SMILES strings stand for the structures. Where a name gives a salt, the structure may show the parent alone. Read-outs that look alike come from different tables or passages of the source.

Series [1] has as its target human norovirus Sydney 2012 RdRp (Norovirus GII.4 (Norwalk virus, human norovirus), UniProt K4L8Z7). The experiment in a line: Fluorescent de novo RdRp activity assay (PicoGreen, poly(C) template). It counts as biochemical. The method, then: The 62 compounds identified in silico were screened for inhibition of norovirus RdRp activity using an in vitro fluorescent, de novo RdRp assay. Compounds were tested at fixed concentrations of 10 µM and 100 µM, and compared to mock treated samples containing the vehicle only (0.5% DMSO [vol/vol]) (Fig. 4A,B). […] For certain compounds, significant insolubility was observed, coupled with either inherent fluorescence quenching (positive y-axis values on Fig. 4A,B) or enhancement of the fluorescence signal (negative y-axis values).
The newly synthesised compounds, including the re-prepared hit 13 and some synthesis intermediates (Table 1), were initially evaluated on norovirus Sydney 2012 RdRp activity in vitro using a quantitative fluorescent assay. Compounds were tested at a fixed concentration of 10 μM and compared to the relative activity of mock treated samples.
Recombinant calicivirus RdRps (GenBank accession numbers) norovirus GII.Pe/GII.4 Sydney 2012 (KT239579), MNV GV CW1 (DQ285629), RHDV Czech V351 (KF594473.1), and SaV GI.1 Mc114 (AY237422) were expressed and purified as described previously[60],[61]. RdRp resistance mutants were generated using the QuikChange site-directed mutagenesis kit (Agilent Technologies, Santa Clara, CA, USA) and confirmed by Sanger sequencing.
(§1) Fluorescent RdRp activity assays were carried out as previously described[14],[62]. Briefly, RdRp activity was quantified by monitoring the formation of double-stranded RNA (dsRNA) from a single stranded homopolymeric template, poly(C) (Sigma Aldrich, St Louis, MO, USA), using the fluorescent dye PicoGreen (Life Technologies, Carlsbad, CA, USA). RdRp assays were performed in 384-well plates, and each reaction mixture contained 400 ng enzyme, 45 µM GTP, 10 ng/µL poly(C) RNA, 2.5 mM MnCl2, 5 mM dithiothreitol, (DTT), 0.01% bovine serum albumin (BSA), and 0.005% Tween 20 in 20 mM Tris-HCl, pH 7.5, with a final reaction volume of 25 µL. The previous published norovirus NNI NIC02 was used as a positive control. RdRps were incubated for 10 mins at 30 °C in the presence of the test compounds or the compound vehicle DMSO (0.5% vol/vol) before addition into the reaction mixture, which was then allowed to run 15 min at 30 °C then terminated with 10 mM EDTA, followed by PicoGreen staining and dsRNA quantitation. GraphPad Prism V6.05 (La Jolla, CA, USA) was used to plot the IC50 values. In cases where fluorescent enhancement was recorded for a compound instead of inhibition, a secondary gel-based polymerase activity assay was used as a counter-screen as described below, to exclude the possibility of RdRp activity enhancement (Supplementary Fig. S1). Primed elongation activity was examined in a gel-based assay as previously described[16],[63] using the RNA template (PE44-NoV, Fig. 4D). Gels were imaged using BioRad (Hercules, CA, U.SA) Geldoc Universal Hood II, running BioRad Image Lab software, V4.1, build 16. Antagonism was calculated using Compusyn software V1.0[59]. 54 and PPNDS (4:1 ratio) were tested alone and together against norovirus Sydney 2012 RdRp.

Series [2] relates to norovirus RdRp. The experiment in a line: Counter-screen gel-shift RdRp assay (primed elongation of PE44-NoV template). It counts as biochemical, human norovirus. The note with it: fixed concentration of 100 µM. The method, then:
In this assay, a 32 nucleotide RNA template (PE44-NoV) is extended to 44 nucleotides in the presence of an active RdRp[16]. […] Inhibition of primed elongation of the PE44-NoV template was examined at a fixed concentration of 100 µM (Fig. 4D). In the absence of inhibition (0.5% DMSO vehicle only) the RNA template was extended to 44 nucleotides (Fig. 4D), evidenced by an upward gel shift and the appearance of the second, higher band.
as §1
Background: The purpose of a counterscreen is to sort out artefacts and off-target activity.

In the next series the target is T1, MNV RdRp (Norovirus, UniProt Q80J95).
T1 construct: made in house
Kind of series: Fluorescent RdRp activity assay, MNV RdRp. Format: biochemical, murine norovirus. The following applies: fixed concentration of 100 µM. From the text: The antiviral activity of the four compounds (11, 13, 42a and 54) were examined for inhibition of RNA polymerases from other viruses spanning three genera of the Caliciviridae family, including Norovirus (human norovirus and MNV), Lagovirus (rabbit haemorrhagic disease virus [RHDV]) and Sapovirus (human sapovirus). […] The protein sequence of the examined calicivirus polymerases has an identity range between 30.2–61.4%, and therefore the broad-spectrum activity of these compounds could be attributed to a common, highly-conserved binding pocket across the RdRps, as has been previously reported with broad-spectrum activity of other site-B binding NNIs[16]. Moreover, the ability of each compound to inhibit the different RdRps in a similar range could be further confirmation of targeting a well-conserved binding site of the Caliciviridae family.
Recombinant calicivirus RdRps (GenBank accession numbers) norovirus GII.Pe/GII.4 Sydney 2012 (KT239579), MNV GV CW1 (DQ285629), RHDV Czech V351 (KF594473.1), and SaV GI.1 Mc114 (AY237422) were expressed and purified as described previously[60],[61]. […]
Fluorescent RdRp activity assays were carried out as previously described[14],[62]. Briefly, RdRp activity was quantified by monitoring the formation of double-stranded RNA (dsRNA) from a single stranded homopolymeric template, poly(C) (Sigma Aldrich, St Louis, MO, USA), using the fluorescent dye PicoGreen (Life Technologies, Carlsbad, CA, USA). […] RdRps were incubated for 10 mins at 30 °C in the presence of the test compounds or the compound vehicle DMSO (0.5% vol/vol) before addition into the reaction mixture, which was then allowed to run 15 min at 30 °C then terminated with 10 mM EDTA, followed by PicoGreen staining and dsRNA quantitation. […] In cases where fluorescent enhancement was recorded for a compound instead of inhibition, a secondary gel-based polymerase activity assay was used as a counter-screen as described below, to exclude the possibility of RdRp activity enhancement (Supplementary Fig. S1). […] Antagonism was calculated using Compusyn software V1.0[59]. […]

For another series, the system named is human norovirus RdRp. The note with it: cited from earlier work.
For a further series, the system named is human norovirus replicon. Also noted: method as in PMID 26392512. The note with it: cell culture; read-out: EC50 against the human norovirus replicon; cited from earlier work. In general terms: Replicon systems follow genome replication, usually without infectious particles.
The subject of the next series is human norovirus. Also noted: method as in PMID 27210811. The following applies: read-out: EC50 against human norovirus in the B-cell culture system; cited from earlier work.
Details of series [3]: method as in PMID 24316032, PMID 24616282. The following applies: cited from earlier work.
The subject of series [4] is norovirus RdRp. The experiment in a line: Counter-screen gel-shift RdRp assay (primed elongation of PE44-NoV template). The following applies: 10 µM. Format: biochemical, human norovirus.

As usually defined, the IC50 is the concentration needed to halve the response being measured. As usually defined, the inhibition is the drop in the measured response relative to a control, in per cent. Consider `O=C(CN1C(=O)S/C(=C\c2ccc(-c3ccccc3)o2)C1=O)Nc1ccccc1` [Compound 42a], for which the IC50 in series [1] worked out at 27.4 µM. Besides, in the series with norovirus RdRp [2], the “inhibition of primed elongation activity (gel-shift)” value was “near complete abolishment of norovirus RdRp activity”. For the same compound, the inhibition at 100 µM on MNV RdRp is 44.4%. Further, the “inhibition of MNV RdRp activity” value on MNV RdRp (100 µM) is recorded as below 50%.
Usually EC50 stands for the concentration needed to bring the measured effect to its halfway point. Regarding `C[C@@]1(O)[C@H](O)[C@@H](CO)O[C@H]1n1ccc(N)nc1=O` [Compound 2CMC, 2′-C-methylcytidine], in the series with human norovirus RdRp (read-out: IC50 against human norovirus RdRp), the IC50 is 2.5 µM. Further, the EC50 was 8.2 µM with human norovirus replicon and 0.3 µM with human norovirus.
As to `Cc1ccc(C(=O)Nc2ccc(S(=O)(=O)O)c3cc(S(=O)(=O)O)cc(S(=O)(=O)O)c23)cc1NC(=O)c1cccc(NC(=O)Nc2cccc(C(=O)Nc3cc(C(=O)Nc4ccc(S(=O)(=O)O)c5cc(S(=O)(=O)O)cc(S(=O)(=O)O)c45)ccc3C)c2)c1` [suramin], the IC50 in the series with human norovirus RdRp (enzymatic assays, read-out: IC50 against human norovirus RdRp) was 0.027 µM. For the same compound, the cell membrane permeability result in series [3] is given as “poor cell membrane permeability”.
Take `Nc1nc2c(ncn2[C@@H]2O[C@H](COP(=O)(O)OP(=O)(O)OP(=O)(O)O)C[C@H]2O)c(=O)[nH]1` [3′dGTP, 3′-deoxyguanosine-5′-triphosphate]: in the series with norovirus RdRp [4], the “inhibition of transcription (gel-shift, positive control)” value is listed as “complete inhibition”.
On to `CC1=N/C(=N/Nc2cc(S(=O)(=O)O)c3cc([N+](=O)[O-])cc(S(=O)(=O)O)c3c2)C(COP(=O)(O)O)=C(C=O)C1=O` [PPNDS, pyridoxal-5′-phosphate-6-(2′-naphthylazo-6′-nitro-4′,8′-disulfonate) tetrasodium salt], for which, in the series on human norovirus RdRp (in vitro, read-out: IC50 against human norovirus RdRp activity), the IC50 is 0.45 µM. Also, the cell membrane permeability entry in series [3] is given as “poor cell membrane permeability”.

(Values after publication PMC5841303, “In silico screening for human norovirus antivirals reveals a novel non-nucleoside inhibitor of the viral polymerase” (Scientific Reports, 2018).)
